Measured values published in paper PMC9079729, “Conservation of the conformational dynamics and ligand binding within M49 enzyme family” (RSC Advances, 2018).
Residues, ends and D or L forms follow the SMILES beside them.

Assays:
[1] = biological target: T1, BtDPP III (Bacteroides thetaiotaomicron, UniProt Q8A6N1); assay: Inhibition of DPP III hydrolysis of Arg2-2NA by tynorphin; type: biochemical; conditions: substrate Arg2-2NA, from initial hydrolysis rates, eq. 1
T1 construct: made in house; host or cells: E. coli

[2] = biological target: T2, CaDPP III (Caldithrix abyssi, UniProt H1XW48); assay: as above; type: biochemical; conditions: substrate Arg2-2NA, from initial hydrolysis rates, eq. 1
T2 construct: made in house; host or cells: E. coli
T2 sequence (H1XW48 19-558): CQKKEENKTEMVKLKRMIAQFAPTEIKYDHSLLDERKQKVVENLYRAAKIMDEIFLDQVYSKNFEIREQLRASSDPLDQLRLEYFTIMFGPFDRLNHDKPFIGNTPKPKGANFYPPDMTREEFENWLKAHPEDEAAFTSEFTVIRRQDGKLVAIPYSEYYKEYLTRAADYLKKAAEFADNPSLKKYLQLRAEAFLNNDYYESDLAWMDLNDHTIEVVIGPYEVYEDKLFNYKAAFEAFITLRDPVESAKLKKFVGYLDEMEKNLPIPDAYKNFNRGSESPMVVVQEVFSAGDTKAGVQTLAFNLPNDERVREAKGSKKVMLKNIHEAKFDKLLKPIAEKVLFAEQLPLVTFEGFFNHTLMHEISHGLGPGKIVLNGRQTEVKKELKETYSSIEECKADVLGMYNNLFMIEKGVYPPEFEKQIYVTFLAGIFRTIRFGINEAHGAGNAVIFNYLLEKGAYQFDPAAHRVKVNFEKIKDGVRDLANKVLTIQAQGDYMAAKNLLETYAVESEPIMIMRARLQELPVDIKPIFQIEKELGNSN
Method: The Km values for hydrolysis of fluorogenic substrate Arg2-2NA were determined at pH 7.4 (20 mM Tris–HCl buffer) and at 25 °C, from the initial reaction rates as previously described.[26]
Enzyme inhibition studies with tynorphin were performed using the Arg2-2NA as a substrate, according to Baršun et al.[36] The inhibition constant, Ki, was calculated according to the equation:1 Ki = i/(v0/vi − 1)·Km/(Km + s)where v0 and vi are the initial hydrolysis rates of Arg2-2NA (given in concentration s) catalyzed by DPP III in the absence and presence of inhibitor concentration (i), and Km is the Michaelis constant.

T1 sequence (Q8A6N1 entry or part of it, change not shown): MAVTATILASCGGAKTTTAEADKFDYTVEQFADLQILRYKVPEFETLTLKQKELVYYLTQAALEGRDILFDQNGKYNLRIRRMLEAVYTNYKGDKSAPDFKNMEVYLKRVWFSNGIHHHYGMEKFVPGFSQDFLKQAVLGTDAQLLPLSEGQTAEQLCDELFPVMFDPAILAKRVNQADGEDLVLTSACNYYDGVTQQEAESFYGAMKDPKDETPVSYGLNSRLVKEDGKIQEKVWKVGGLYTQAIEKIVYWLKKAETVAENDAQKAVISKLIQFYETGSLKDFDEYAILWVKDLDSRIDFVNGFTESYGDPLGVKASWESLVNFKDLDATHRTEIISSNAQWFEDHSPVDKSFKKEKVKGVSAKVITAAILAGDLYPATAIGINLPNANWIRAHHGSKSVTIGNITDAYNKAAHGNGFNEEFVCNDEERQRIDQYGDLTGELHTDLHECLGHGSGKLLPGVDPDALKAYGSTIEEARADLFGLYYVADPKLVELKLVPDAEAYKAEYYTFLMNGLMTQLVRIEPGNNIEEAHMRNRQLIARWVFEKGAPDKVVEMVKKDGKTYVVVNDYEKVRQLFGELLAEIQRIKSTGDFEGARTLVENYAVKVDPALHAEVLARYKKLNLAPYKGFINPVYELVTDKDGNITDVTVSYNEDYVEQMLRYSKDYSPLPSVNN

## CC(C)[C@H](N)C(=O)N[C@H](C(=O)N[C@@H](Cc1ccc(O)cc1)C(=O)N1CCC[C@H]1C(=O)N[C@@H](Cc1c[nH]c2ccccc12)C(=O)O)C(C)C [tynorphin] (H-VVYPW-OH)
[1]
  Ki: 0.98 µM
[2]
  Ki: 16.8 µM
